Experimental data taken from patent US5069812A, “Bleach/builder precursors” (priority 1990, dated 1991).

Experiments:
[1] = Stain bleaching on tea-stained cotton (Terg-O-Tometer wash, reflectance change); conditions: 40° C., 15 minutes, BC1 cloth, pH = 9.0-9.5, [precursor] = 6.2 × 10^-4 M, [H2O2] = 6.25 × 10^-3 M; corrected for H2O2 and detergent alone
Procedure: Typically, cotton test pieces (4 in.×4 in.) stained with the tea are washed in a Terg-O-Tometer in 1 l. of aqueous solution containing a given level of bleach precursor, hydrogen peroxide, buffer, and surfactant (generally sodium dodecylbenzenesulfonate).
Washes are carried out at 40° C. for 15 minutes. Stain bleaching is measured reflectrometrically using a Colorgard System/05 Reflectometer. Bleaching is indicated by an increase in reflectance, reported as ΔR. In general a ΔR of one unit is perceivable in a paired comparison while ΔR of two units is perceivable monadically. In reporting the reflectance change, the change in reflectance caused by general detergency and bleaching by the excess hydrogen peroxide has been accounted for. Thus ΔR can actually be expressed as: ΔR=(the value of the Reflectance of stained fabric washed with precursor, H2 O2 and detergent minus the value of the Reflectance of stained fabric before washing) minus (the value of the Reflectance of stained fabric washed with H2 O2 and detergent alone minus the value of the Reflectance of stained fabric before washing).
The formulation of the detergent base used for the bleaching test is as follows: […]

[2] = Determination of calcium binding (Ca ion selective electrode titration); assay type: physicochemical; conditions: pH 10, 0.05 g/l solution, ionic strength 0.02-0.03M (NaCl), titrated with 0.02M CaCl2
Procedure: Calcium binding data was obtained at a pH of 10 by titrating 100 ml of 0.05 g/l precursor solution at an ionic strength of 0.02-0.03M (NaCl) with a 0.02M CaCl2 solution. A Radiometer calcium ion selective electrode was used to measure free Ca^++ ion concentration of the solutions. Data was corrected for dilution during each titration.

[3] = Biodegradability (statement, no test described); conditions: chelidamic acid moiety
[4] = Peracid generation from precursors (perhydrolysis yield); conditions: 40° C., [BPD] = 6.24 × 10^-4 M, [H2O2] = 6.24 × 10^-3 M
Procedure: The precursors described herein can be used to generate peroxycarbonic acid bleaches in basic aqueous solution containing a source of hydrogen peroxide and, optimally, may contain typical detergent ingredients. […] The hydrogen peroxide source is added just prior to addition of the precursor. Ten milliliter aliquots of solution are withdrawn from the beaker at regular intervals and are added to a 250 ml titration flask containing crushed ice (150 g), glacial acetic acid (30 ml) and 4% aqueous potassium iodide (5 ml). After development for ten minutes with occasional agitation, the iodine produced is titrated with standard sodium thiosulfate solution. Time zero is taken as the point of introduction of precursor into the peroxyide solution. Precursor perhydrolysis experiments are generally carried out for a maximum of 15 minutes.
Since hydrogen peroxide itself contributes to the total active oxygen in these titrations, controls or "blanks" are obtained by carrying out a perhydrolysis experiment in the absence of precursor. These hydrogen peroxide blanks are subtracted from the total active oxygen titration in the presence of bleach precursor to give the level of active oxygen produced by precursor perhydrolysis.
Peroxycarbonic acid generation is determined at pH 8, 9, and 10. Borax buffer is used for experiments at pH 9 and 10 while phosphate buffer is employed for experiments carried out at pH 8. Adjustment of the buffer systems at 40° C. to the exact pH is carried out with 1M hydrochloric acid or sodium hydroxide solution.

Binding Constants Log KCa [2]	SMILES	Bleaching Performance Δ R [1]	further results
	C[N+](C)(C)CCOC(=O)Oc1cc(C(=O)O)nc(C(=O)O)c1 [CCPD, Disodium, 4-Choline Carbonate-2,6-Pyridinedicarboxylic Acid]	> 15.0	
5.70	O=C(O)c1cc(O)cc(C(=O)O)n1 [Chelidamic Acid, 1,4-Dihydro-4-oxo-2,6-pyridine dicarboxylic acid]		biodegradability [3]: biodegradable
	O=C(Oc1cc(C(=O)O)nc(C(=O)O)c1)c1ccccc1.[Na].[Na] [BPD, Disodium, 4-Benzoyloxy-2,6-Pyridinedicarboxylic Acid]	> 6.0	Perhydrolysis yields from BPD (peroxycarbonic acid yield as a percent of theoretical), 1 minute ([4]; pH 10, 1 minute): 91.35%; Perhydrolysis yields from BPD (peroxycarbonic acid yield as a percent of theoretical), 8 minutes ([4]; pH 10, 8 minutes): 17.63%; Perhydrolysis yields from BPD (peroxycarbonic acid yield as a percent of theoretical), 15 minutes ([4]; pH 10, 15 minutes): 0%
	O=C(Oc1cc(C(=O)O)nc(C(=O)O)c1)c1cccc(CCl)c1 [CBPD, Disodium, 4-(3-Chloromethyl)benzoyloxy-2,6-Pyridinedicarboxylic Acid]	> 6.0	
5.85	O=P(O)(O)OP(=O)(O)OP(=O)(O)O [Sodium Tripolyphosphate]		
